{
  "source": "paper PMC11973072",
  "about": "“Computational screening for novel α-glucosidase inhibitory peptides from Chlamys nobilis adductor muscle as a potential antidiabetic agent” (Frontiers in Nutrition, 2025)",
  "key": {"blood glucose": {"tested_on": "blood glucose", "experiment": "Effect of EHCA on blood glucose in normal mice (starch gavage)", "assay_type": "in vivo, Kunming mice", "procedure": "Fifty healthy adult male Kunming mice were purchased from Zhuhai Bestest Biotechnology Co., Ltd. The experiments were approved by the Animal Ethics Committee of Guangdong Ocean University with the approval number of GDOU-LAE-2021-002, approved on 6 April 2021. Before the experiment, all animals were watered and fed freely for 7 days. […] The groups were mixed with soluble starch (250 mg/kg) and gavaged synchronously for 3 d. […] Where G0 is the pre-dose fasting blood glucose value, mmol/L; […] Area under the curve (AUC) was calculated applying the following formula (Equation 4): (4) […]/4."}, "serum insulin": {"tested_on": "serum insulin", "experiment": "Effect of EHCA on serum insulin (INS)", "assay_type": "in vivo, Kunming mice", "details": "PC, metformin 150 mg/kg, mean ± SD, n = 10 mice", "procedure": "Fifty healthy adult male Kunming mice were purchased from Zhuhai Bestest Biotechnology Co., Ltd. The experiments were approved by the Animal Ethics Committee of Guangdong Ocean University with the approval number of GDOU-LAE-2021-002, approved on 6 April 2021. Before the experiment, all animals were watered and fed freely for 7 days. […] The groups were mixed with soluble starch (250 mg/kg) and gavaged synchronously for 3 d. […] Effects of EHCA on mice at the end of the test, blood was taken from the eyeballs of mice, which were executed in the decapitated position, and the organs were collected for subsequent experiments. […] (5) […] Where WISI is the insulin sensitivity index; WFPG is fasting blood glucose, mmol/[…] is fasting insulin content (μU/mL); and WFBCI is the insulin secretion index."}, "SOD in liver": {"tested_on": "SOD in liver", "experiment": "Hepatic superoxide dismutase (SOD) activity", "assay_type": "in vivo, Kunming mice", "details": "PC, metformin 150 mg/kg", "procedure": "Fifty healthy adult male Kunming mice were purchased from Zhuhai Bestest Biotechnology Co., Ltd. The experiments were approved by the Animal Ethics Committee of Guangdong Ocean University with the approval number of GDOU-LAE-2021-002, approved on 6 April 2021. Before the experiment, all animals were watered and fed freely for 7 days. […] The groups were mixed with soluble starch (250 mg/kg) and gavaged synchronously for 3 d."}, "[1]": {"details": "pH 7.4"}, "α-glucosidase": {"target": "α-glucosidase (Saccharomyces cerevisiae, UniProt P53341)", "sequence (P53341 whole entry)": "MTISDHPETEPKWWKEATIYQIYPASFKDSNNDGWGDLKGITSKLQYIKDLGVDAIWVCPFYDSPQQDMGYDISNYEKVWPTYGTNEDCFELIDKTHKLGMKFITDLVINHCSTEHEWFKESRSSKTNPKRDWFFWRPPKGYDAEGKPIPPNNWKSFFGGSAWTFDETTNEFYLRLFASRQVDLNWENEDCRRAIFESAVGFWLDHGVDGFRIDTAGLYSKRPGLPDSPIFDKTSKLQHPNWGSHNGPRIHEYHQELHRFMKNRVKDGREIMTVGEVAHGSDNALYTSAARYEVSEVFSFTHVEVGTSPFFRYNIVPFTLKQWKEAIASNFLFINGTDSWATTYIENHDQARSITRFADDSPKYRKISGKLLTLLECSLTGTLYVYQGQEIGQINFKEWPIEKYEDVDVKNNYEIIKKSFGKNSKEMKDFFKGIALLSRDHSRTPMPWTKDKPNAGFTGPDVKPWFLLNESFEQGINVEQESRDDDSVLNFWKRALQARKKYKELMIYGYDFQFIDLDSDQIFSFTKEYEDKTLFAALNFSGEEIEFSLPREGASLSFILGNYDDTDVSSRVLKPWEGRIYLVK", "details": "cited from earlier work", "text": "Marine proteins have a novel amino acid composition, which is one of the important sources for the production of bioactive peptides ([11], [12]). There have been a number of studies on natural hypoglycemic active peptides from marine sources such as Trachurus trachurus, Euphausia superba, Chlorella vulgaris and Crassostrea gigas ([11], [13-15]). […] The molecular weight of protein hydrolysates is a determinant of their biological activity, and peptide fractions with low molecular weights are highly biologically active ([33])."}, "[2]": {"tested_on": "glucose metabolizing enzyme", "details": "extracted from Spirulina; cited from earlier work", "text": "Marine proteins have a novel amino acid composition, which is one of the important sources for the production of bioactive peptides ([11], [12]). There have been a number of studies on natural hypoglycemic active peptides from marine sources such as Trachurus trachurus, Euphausia superba, Chlorella vulgaris and Crassostrea gigas ([11], [13–15])."}},
  "note": "Values joined by “and” are separate entries in the source; they are usually repeats but may differ in a detail not shown here. Identical values can stand only once. Marks after values point to notes of the source that are not given here. Where no end group is shown, it is not given here.",
  "data": [
    {"compound": "CN(C)C(=N)N=C(N)N", "note": "[metformin]", "values": [
      {"measurement": "blood glucose values after gavage vs NC (in words)", "setting": "blood glucose; 0.5 h and 2 h of gavage, compared with the NC group, p < 0.05", "value": "significantly reduce the blood glucose values"},
      {"measurement": "AUC of blood glucose (in words)", "setting": "blood glucose; EHCA 500-2,000 mg/kg or metformin 150 mg/kg, relative to NC group, p < 0.05, n = 10", "value": "markedly reduced the AUC values"},
      {"measurement": "Blood glucose value, G1", "setting": "blood glucose; PC, metformin 150 mg/kg, gavage 3 d, fasting at the end of dosing, mean ± SD, n = 10 mice", "value": "3.21 ± 0.20^a mmol/L"},
      {"measurement": "Blood glucose value, 0.5 h", "setting": "blood glucose; PC, metformin 150 mg/kg, gavage 3 d with soluble starch, 0.5 h, mean ± SD, n = 10 mice, listed as PC", "value": 8.45, "unit": "mmol/L"},
      {"measurement": "Blood glucose value, 2 h", "setting": "blood glucose; PC, metformin 150 mg/kg, gavage 3 d with soluble starch, 2 h, mean ± SD, n = 10 mice, listed as PC", "value": "6.87 ± 1.14 mmol/L and 6.87 mmol/L"},
      {"measurement": "Blood glucose value, G0", "setting": "blood glucose; PC, metformin 150 mg/kg, pre-dose fasting, mean ± SD, n = 10 mice", "value": "4.94 ± 1.71^a mmol/L"},
      {"measurement": "hypoglycemic rate (in words)", "setting": "blood glucose; fasted mice, EHCA 500-2,000 mg/kg or metformin 150 mg/kg, 3 d, compared with the NC group, n = 10", "value": "significantly increased the hypoglycemic rate"},
      {"measurement": "Fasting serum insulin", "setting": "serum insulin; ELISA", "value": "29.82 ± 5.50^a mIU/L"},
      {"measurement": "Insulin secretion index", "setting": "serum insulin", "value": "8.50 ± 1.12^a"},
      {"measurement": "Insulin sensitivity index", "setting": "serum insulin", "value": "2.13 ± 0.13^a"},
      {"measurement": "SOD activity in liver", "setting": "SOD in liver; WST-8 method, mean ± SD, n = 10 mice, NC 242.00 ± 66.43", "value": "363.55 ± 18.09", "unit": "U/mL"},
      {"measurement": "increase of SOD activity in liver", "setting": "SOD in liver; compared to the NC group", "value": 50.23, "unit": "%"}
    ]},
    {"compound": "KLNSTTEKLEE", "values": [
      {"measurement": "solubility", "setting": "[1]", "value": "good solubility"}
    ]},
    {"compound": "LPLLR [Walnut-derived peptide LPLLR]", "values": [
      {"measurement": "inhibition of α-glucosidase", "setting": "α-glucosidase; 2 mM, walnut-derived", "value": 50.12, "unit": "%"}
    ]},
    {"compound": "LRSELAAWSR [peptide from Spirulina platensis]", "values": [
      {"measurement": "IC50", "setting": "α-glucosidase; from Spirulina platensis", "value": 134, "unit": "µM"},
      {"measurement": "IC50, inhibitory activity against α-glucosidase", "setting": "α-glucosidase; from Spirulina platensis", "value": 134.2, "unit": "µg/mL"}
    ]},
    {"compound": "TDADHKF [TDADHKF, Thr-Asp-Ala-Asp-His-Lys-Phe]", "values": [
      {"measurement": "solubility", "setting": "[1]", "value": "good solubility"}
    ]},
    {"compound": "USW: anti-diabetic peptide USW extracted from Spirulina (LRSELAAWSR)", "values": [
      {"measurement": "effect on insulin resistance / glucose metabolizing enzyme", "setting": "[2]", "value": "improve insulin resistance by significantly increasing activity of glucose metabolizing enzyme"}
    ]}
  ]
}
